Measurements: PMC9298916, “The Discovery and Structure‐Activity Evaluation of (+)‐Floyocidin B and Synthetic Analogs” (Chemmedchem, 2021)
Values after ≈ are worked out from the molar mass of the structure shown. Where two headings read alike, the source gives them in different places.

How the values were obtained:
THP1 cells = assay: Cytotoxicity on THP1 cells (CellTiterGlo); format: cell-based; details: THP1 cells; 40 h
Protocol: (§1) Cytotoxicity on THP1 and HepG2 cells
(§2) After 4 hours of HepG2 cell line (provided by ATCC) plating at 2.500 cells /well in 384-w plates, compounds were added to the cells. After an incubation at 37 °C for 40 h, the CellTiterGlo assay (provided by Promega) was performed.
(§3) Luminescence measurement is related to the cell viability. Compound activity is determined by using the control wells with no treatment as control (100% of growth). The assay was performed identically with THP1 cells. All incubations were […]

Caco-2 cells = assay: Cellular permeability assay utilizing Caco2 cell line; details: 10 µM, 120 min; for Caco‐2 permeability Papp +Elacridar / Caco‐2 permeability recovery +Elacridar: A2B in the presence of elacridar
[1] = Microsomal stability, human; format: in vitro ADME; details: 1 µM compound; for Microsomal stability CLint, Human / Microsomal stability t1/2, Human: human liver microsomes 0.5 mg/mL; for microsomal CLint at 1 µM / half-life at 1 µM: human, pooled liver microsomes, pH 7.4, human liver microsomes 0.5 mg/mL; for half-life at 1 µM: read-out: Microsomal stability t1/2, Human
Protocol: (§4) 2.4. Assay descriptions for the profiling of all four stereoisomers of (+)-floyocidin B and (−)-avicennone C,1 the avicennone C-floyocidin B hybrids 35, ent-35, 36 and ent-36 as well as the natural product (+)-floyocidin A. […]
(§5) Pooled liver microsomes are purchased. Microsomes are stored at –80 °C prior to use. Microsomes (final protein concentration 0.5 mg/mL), 0.1 M phosphate buffer pH 7.4, and test compound (final substrate concentration 1 µM; final DMSO concentration 0.25%) are preincubated at 37 °C prior to the addition of NADPH (final concentration 1 mM) to initiate the reaction. A minus cofactor control i ncubation is included for each compound tested where 0.1 M phosphate buffer pH 7.4 is added instead of NADPH. Two control compounds are included. All incubations are performed singularly for each test compound. Each compound is incubate d for 0, 5, 15, 30, and 45 min. The control is incubated for 45 min only. The reactions are stopped by transferring incubate into acetonitrile at the appropriat e time points, in a 1:3 ratio. The termination plates are centrifuged at 3,000 rpm for 20 min at 4 °C to precipitate the protein.
(§6) From a plot of ln peak area ratio (compound peak area/internal standard peak area) against time, the gradient of the line is determined. Subsequently, half -life and intrinsic clearance are calculated using the equations below:
(§7) Elimination rate constant (k) = (- gradient)
(§8) Intrinsic clearance (CL )(µL/min/mg protein) = V x 0.693 […]
(§9) where V = Incubation volume (µL)/Microsomal protein (mg)
(§10) Relevant control compounds are assessed, ensuring intrinsic clearance values fall within the specified limits (if available). […]

HepG2 cells = assay: Cytotoxicity on HepG2 cells (CellTiterGlo); format: cell-based; details: 40 h
Protocol: as §1, §2, §3

[2] = system: M. catarrhalis ATCC25238I; assay: Micro-broth dilution growth inhibition, M. catarrhalis; format: cell-based
[3] = Microsomal stability, mouse; format: in vitro ADME; details: for Microsomal stability CLint, Mouse / Microsomal stability t1/2, Mouse: mouse liver microsomes 0.5 mg/mL
Protocol: as §4, §5, §6, §7, §8, §9, §10

physchem = format: physicochemical; details: for chromatographic logD: pH 7.4, Log D pH 7.4
Protocol: 2.4. Assay descriptions for the profiling of all four stereoisomers of (+)-floyocidin B and (−)-avicennone C,1 the avicennone C-floyocidin B hybrids 35, ent-35, 36 and ent-36 as well as the natural product (+)-floyocidin A.
Determination of logD 7.4
LogD values at pH 7.4 were determined by a standardized HPLC method derived from by Genieser et al.8 The calculation of the logD value for measured compounds is performed by comparison of the retention times with standard compounds of known distribution coefficients between 1 -octanol and water at pH 7.4. […]
8 Krass, J. D., Jastorff, B., and Genieser, H.-G. Anal. Chem. 1997, 69, 2575–2581. […]

C. albicans FH2173 = assay: Micro-broth dilution growth inhibition, C. albicans (ATP quantification); format: cell-based
E. coli ATCC25922 MHC = assay: Micro-broth dilution growth inhibition, E. coli in CAMH with 44 mM sodium bicarbonate (MHC); format: cell-based; details: E. coli ATCC25922 MHC (CAMH + 44 mM sodium bicarbonate)
M. tuberculosis H37Rv = assay: Growth inhibition, M. tuberculosis H37Rv (Middlebrook 7H9, CellTiter-Blue); format: cell-based; details: M. tuberculosis H37Rv (Mtb); 6 days
E. coli ATCC25922 = assay: Micro-broth dilution growth inhibition, E. coli (CAMH); format: cell-based; details: Escherichia coli, 18 h
[4] = Cellular permeability assay utilizing Caco2 cell line; details: human; for Papp at 120 min, 10 µM: Caco-2, Caco‐2 permeability Papp +Elacridar, A2B in the presence of elacridar; for Papp A→B at 120 min, 10 µM: Caco-2, Caco‐2 permeability Papp A2B, A2B
S. aureus ATCC25923 = assay: Micro-broth dilution growth inhibition, S. aureus; format: cell-based; details: Staphylococcus aureus, 18 h
P. aeruginosa ATCC27853 = assay: Micro-broth dilution growth inhibition, P. aeruginosa; format: cell-based; details: Pseudomonas aeruginosa, 18 h
[5] = Candida albicans, FH2173, 48 h, read-out: MIC
[6] = Escherichia coli, ATCC25922, 18 h, read-out: MIC
[7] = Moraxella catarrhalis, ATCC25238I, read-out: MIC

| Structure (SMILES) | Cytotoxicity TC50 THP1 (THP1 cells) | Caco‐2 permeability Papp +Elacridar (Caco-2 cells) | Caco‐2 permeability recovery +Elacridar (Caco-2 cells) | Caco‐2 permeability Papp A2B (Caco-2 cells) | Caco‐2 permeability recovery A2B (Caco-2 cells) | Microsomal stability CLint, Human [1] | Microsomal stability t1/2, Human [1] | Cytotoxicity TC50 HepG2 (HepG2 cells) | MIC [2] | Microsomal stability CLint, Mouse ([3]; 1 µM compound) | Microsomal stability t1/2, Mouse ([3]; 1 µM compound) | Log D pH 7.4 (physchem) | MIC (C. albicans FH2173; 48 h) | MIC (C. albicans FH2173; [5]) | MIC (E. coli ATCC25922) | Papp at 120 min, 10 µM [4] | chromatographic logD (physchem) | MIC (E. coli ATCC25922 MHC; [6]) | MIC (S. aureus ATCC25923) | MIC (P. aeruginosa ATCC27853) | further results |
| --- | --- | --- | --- | --- | --- | --- | --- | --- | --- | --- | --- | --- | --- | --- | --- | --- | --- | --- | --- | --- | --- |
| CCCC=Cc1cc2c(cn1)C(O)C1OC1(CC=C(C)C)C2=O (stereo not drawn) [ent‐27] | 11.5 µM | 64.4 10^−7 cm s^−1 | 15.3% | 40.5 10^−7 cm s^−1 | 8.69% | 44.3 μL/min/mg protein | 31.3 min | 10.4 µM | 8 mg/L (≈ 25.5 µM) | 764 μL/min/mg protein | 1.81 min | 4.16 |  |  |  |  |  |  |  |  | Caco‐2 permeability recovery +Elacridar (Caco-2 cells; listed as ent-27): 15.3%; Caco‐2 permeability recovery A2B (Caco-2 cells; listed as ent-27): 8.69% |
| CC(C)=CCC12OC1C(O)c1ccccc1C2=O (stereo not drawn) [ent‐37] | 25.2 µM | 300 10^−7 cm s^−1 | 74.6% | 360 10^−7 cm s^−1 | 81.3% | 73.5 μL/min/mg protein | 18.9 min | 30 µM |  | 370 μL/min/mg protein | 3.75 min | 2.82 | 128 mg/L (≈ 524 µM) |  |  |  |  |  |  |  | Caco‐2 permeability recovery +Elacridar (Caco-2 cells; listed as ent-37): 74.6%; Caco‐2 permeability recovery A2B (Caco-2 cells; listed as ent-37): 81.3%; MIC (E. coli ATCC25922 MHC; 18 h): 128 mg/L |
| CCCC=Cc1ccc2c(c1)C(=O)C1(CC=C(C)C)OC1C2O (stereo not drawn) [ent‐36] | 18.2 µM | 12.4 10^−7 cm s^−1 | 12.0% | 8.55 10^−7 cm s^−1 | 14.3% | 29.9 μL/min/mg protein | 46.3 min | 11.3 µM |  | 721 μL/min/mg protein | 1.92 min | 4.74 |  |  |  |  |  |  |  |  | Caco‐2 permeability recovery +Elacridar (Caco-2 cells; listed as ent-36): 12.0%; Caco‐2 permeability recovery A2B (Caco-2 cells; listed as ent-36): 14.3%; MIC (M. tuberculosis H37Rv): 9.4 mg/L (≈ 30.1 µM) |
| CCC/C=C/c1cc2c(cn1)[C@H](O)[C@H]1O[C@@]1(CC=C(C)C)C2=O [compound 27, (1aR,2S,7aR)‐2‐Hydroxy‐7 a‐(3‐methylbut‐2‐en‐1‐yl)‐5‐((E)‐pent‐1‐en‐1‐yl)‐1 a,7 a‐dihydrooxireno[2,3‐g]isoquinolin‐7(2H)‐one] | 10.6 µM |  | 38.5% |  | 42.1% |  |  | 10.7 µM |  |  |  |  |  | > 128 mg/L | > 128 mg/L | 87.7 nm/s | 4.14 | > 128 mg/L | > 128 mg/L | > 128 mg/L | Papp A→B at 120 min, 10 µM [4]: 117 nm/s; microsomal CLint at 1 µM [1]: 95.8 µL/min/mg; half-life at 1 µM [1]: 14.5 min; microsomal CLint at 1 µM ([3]; mouse, pooled liver microsomes, pH 7.4, mouse liver microsomes 0.5 mg/mL, 1 µM compound, read-out: Microsomal stability CLint, Mouse): 1500 µL/min/mg; half-life at 1 µM ([3]; mouse, pooled liver microsomes, pH 7.4, mouse liver microsomes 0.5 mg/mL, 1 µM compound, read-out: Microsomal stability t1/2, Mouse): 0.924 min |
| CC(C)=CCC12OC1C(O)c1ccccc1C2=O (stereo not shown) [compound 37] | 27.2 µM |  | 80.9% |  | 74.8% | 54.6 μL/min/mg protein | 25.4 min | 30 µM | 128 mg/L (≈ 524 µM) |  |  |  | 128 mg/L (≈ 524 µM) |  |  | 279 nm/s | 2.82 |  |  |  | Papp A→B at 120 min, 10 µM [4]: 326 nm/s; microsomal CLint at 1 µM ([3]; mouse, microsomes, pH 7.4, Microsomal stability CLint): > 1500 µL/min/mg |
| CCCC=Cc1cc2c(cn1)C(O)C1OC1(CC=C(C)C)C2=O (stereo not drawn) [ent‐4] | 8.78 µM |  | 28.7% |  | 23.4% |  |  | 5.97 µM |  | 271 μL/min/mg protein | 5.12 min |  |  | > 128 mg/L | > 128 mg/L | 46.7 nm/s | 3.97 | > 128 mg/L | > 128 mg/L | > 128 mg/L | Papp A→B at 120 min, 10 µM [4]: 73.5 nm/s; Caco‐2 permeability recovery +Elacridar (Caco-2 cells; listed as ent-4): 28.7%; Caco‐2 permeability recovery A2B (Caco-2 cells; listed as ent-4): 23.4%; microsomal CLint at 1 µM [1]: 26.9 µL/min/mg; half-life at 1 µM [1]: 51.6 min; MIC [2, 7]: 16 mg/L (≈ 51.1 µM) |
| CCC/C=C/C=C/C1=C(CO)[C@@H](O)[C@H]2O[C@@]2(CC=C(C)C)C1=O [compound 3, (1R,5R,6R)‐3‐((1E,3E)‐Hepta‐1,3‐dien‐1‐yl)‐5‐hydroxy‐4‐(hydroxymethyl)‐1‐(3‐methylbut‐2‐en‐1‐yl)‐7‐oxabicyclo[4.1.0]hept‐3‐en‐2‐one] |  |  |  |  |  |  |  |  |  |  |  |  |  | > 128 mg/L | > 128 mg/L |  | 4.11 | > 128 mg/L | 64 mg/L (≈ 201 µM) | > 128 mg/L |  |
| CC(C)=CCC12OC1C(O)c1ccccc1C2=O (stereo not drawn) [compound 2, (−)‐avicennone C, reference compound] | 30 µM | 393 10^−7 cm s^−1 | 83.4% | 407 10^−7 cm s^−1 | 86.7% | 150 μL/min/mg protein | 9.26 min | >30 µM | 64 mg/L (≈ 262 µM) |  |  | 2.86 | 128 mg/L (≈ 524 µM) |  |  |  |  |  |  |  |  |
| CC(C)=CCC12OC1C(O)c1ccccc1C2=O (stereo not shown) [compound 38] | 30 µM | 331 10^−7 cm s^−1 | 132% | 620 10^−7 cm s^−1 | 127% | 76.0 μL/min/mg protein | 18.2 min | 9.49 µM |  | 1070 μL/min/mg protein | 1.29 min | 2.84 |  | > 128 mg/L | > 128 mg/L |  |  | > 128 mg/L | > 128 mg/L | > 128 mg/L | MIC [2, 7]: 128 mg/L (≈ 524 µM) |
